The values below come from patent EP0067565A1, “Pharmaceutically active compounds” (BEECHAM GROUP PLC, priority 1981, dated 1982).

For one experiment, the system named is rats. Briefly: Increase in intragastric pressure. To be noted: dose level of 1.0 mg/kg s.c.; conscious but restrained rats; average height of pressure waves, 40 minute period after administration vs pre-dose; Student's t test. In kind it is in vivo. The method, then:
Intragastric pressure changes were recorded from previously starved conscious but restrained rats using a saline filled catheter inserted into the lumen of the stomach via a permanent gastric fistula. The catheter was connected to a physiological pressure transducer and pressure changes recorded on a hot wire pen recorder. In each animal a pre-dose period of 40 minutes was allowed to obtain a measure of spontaneous activity. An index of activity was obtained by measuring the average height of pressure waves during 10 minute periods. Values for 4 such periods were obtained during assessment of spontaneous activity and for 40 minute period after administration of compound. Student's "t" test was applied to the difference in average values obtained for spontaneous and post compound activity.

The test system of the next experiment is dog. Nature of the experiment: Anti-emetic activity in the dog (apomorphine-induced vomiting). In kind it is in vivo. Conditions: compound subcutaneously 30 minutes prior to apomorphine HC1 0.1 mg/kg subcutaneously; for ED50: Canis lupus familiaris, sc, read-out: ED50 values for inhibition of the vomiting response. The method, then:
Compounds were administered subcutaneously 30 minutes prior to administration of a standard dose of apomorphine HC1 (0.1 mg/kg subcutaneously) and the vomiting response compared to that obtained when the same animals were dosed with apomorphine HC1 and vehicle only. The ED50 values for inhibition of the vomiting response determined for compound 11 and 13 were 1.0 mg/kg; for compound 33, 0.1 mg/kg and for compound 35, 0.01 mg/kg.

`COc1cc(N)c(Cl)cc1C(=O)N[C@@H]1C[C@@H]2CCCN2[C@H](C)C1` (racemic) [Compound 8, (±) 4-Amino-5-chloro-2-methoxy-N-[7'β-(9'β-methyl-1'-aza-5'α-H-bicyclo[4,3,n]nonyl)]benzamide]: the “index of activity post administration” value with rats is “significantly increased”.
The same measure, in the same setting: then `COc1cc(N)c(Cl)cc1C(=O)N[C@H]1C[C@@H]2CCCN2[C@H](C)C1` (racemic) [Compound 9, (±) 4-Amino-5-chloro-2-methoxy-N-[7'α-(9'β-methyl-1'-aza-5'α-H-bicyclo[4,3,0]nonyl)]benzamide], with “significantly increased”.
On to `COc1cc(N)c(Cl)cc1C(=O)N[C@@H]1C[C@@H]2CCCN2[C@@H](C)C1` (racemic) [Compound 11, (±) 4-Amino-5-chloro-2-methoxy-rd-[7'β-(9'α-methyl-1'-aza-5α-H-bicyclo[4,3,0]nonyl)]benzamide], for which the “index of activity post administration” value in the experiment on rats was “significantly increased”. For the same compound, the ED50 (usually the midpoint of the dose-response relation) in the experiment with dog turned out to be 1 mg/kg.
Take `COc1cc(N)c(Cl)cc1C(=O)N[C@H]1C[C@@H]2CCCN2[C@@H](C)C1` (racemic) [Compound 13, (±) 4-Amino-5-chloro-2-methoxy-N-[7'α-(9'α-methyl-1'-aza-5α-H-bicyclo[4,3,0]nonyl)]benzamide]: in the experiment with dog, the ED50 was 1 mg/kg.
Consider `CC[C@H]1C[C@H](NC(=O)c2cc(Cl)c(N)cc2OC)C[C@@H]2CCCN12` (racemic) [Compound 33, (±) 4-Amino-5-chloro-2-methoxy-N-[7'β-(9'α-ethyl-1'-aza-5'α-H-bicyclo[4,3,0]nonyl)]benzamide], for which the 50% effective dose (ED50) in the experiment on dog came to 0.1 mg/kg.
For the compound “(±) 4-Amino-5-chloro-2-methoxy-N-[7'β-(9'α-isopropyl-1'-aza-5'-α-H-bicyclo[4,3,0]nonyl)]benzamide [Compound 35]”, the “ED50 values for inhibition of the vomiting response” value with dog is given as 0.01 mg/kg.
